Results reported in ChEMBL document CHEMBL5523679, “Discovery of 1,2,3-triazole incorporated indole-piperazines as potent antitubercular agents: Design, synthesis, in vitro biological evaluation, molecular docking and ADME studies” (Bioorg Med Chem, 2024).

Assays:
Assay type in all cases: functional
Pseudomonas aeruginosa [1] = test: Antibacterial activity against Pseudomonas aeruginosa assessed as inhibition zone at 75 ug/ml by diffusion method; settings: read-out: IZ
Escherichia coli [2] = test: Antibacterial activity against Escherichia coli assessed as inhibition zone at 25 ug/ml by diffusion method; settings: read-out: IZ
Pseudomonas aeruginosa [3] = test: Antibacterial activity against Pseudomonas aeruginosa assessed as inhibition zone at 50 ug/ml by diffusion method; settings: read-out: IZ
Staphylococcus aureus [4] = test: Antibacterial activity against Staphylococcus aureus assessed as inhibition zone at 25 ug/ml by diffusion method; settings: read-out: IZ
Escherichia coli [5] = test: Antibacterial activity against Escherichia coli assessed as inhibition zone at 75 ug/ml by diffusion method; settings: read-out: IZ
Escherichia coli [6] = test: Antibacterial activity against Escherichia coli assessed as inhibition zone at 50 ug/ml by diffusion method; settings: read-out: IZ
Staphylococcus aureus [7] = test: Antibacterial activity against Staphylococcus aureus assessed as inhibition zone at 75 ug/ml by diffusion method; settings: read-out: IZ
[8] = system: Mycobacterium tuberculosis; test: Antimycobacterial activity against Mycobacterium tuberculosis H37Rv assessed as bacterial growth inhibition by microplate Alamar blue assay
Staphylococcus aureus [9] = test: Antibacterial activity against Staphylococcus aureus assessed as inhibition zone at 50 ug/ml by diffusion method; settings: read-out: IZ

O=C(CCc1c[nH]c2ccccc12)N1CCN(S(=O)(=O)c2ccccc2)CC1
zone of inhibition at 75 µg/mL (Pseudomonas aeruginosa [1]): 15 mm | zone of inhibition at 25 µg/mL (Escherichia coli [2]): 10 mm | zone of inhibition at 50 µg/mL (Pseudomonas aeruginosa [3]): 10 mm | zone of inhibition at 25 µg/mL (Staphylococcus aureus [4]): 12 mm | zone of inhibition at 75 µg/mL (Escherichia coli [5]): 15 mm | zone of inhibition at 50 µg/mL (Escherichia coli [6]): 12 mm | zone of inhibition at 75 µg/mL (Staphylococcus aureus [7]): 20 mm | MIC [8]: > 120 µM | zone of inhibition at 50 µg/mL (Staphylococcus aureus [9]): 15 mm

O=C(Cc1c[nH]c2ccccc12)N1CCN(S(=O)(=O)c2ccc(Cl)cc2)CC1
zone of inhibition at 75 µg/mL (Pseudomonas aeruginosa [1]): 13 mm | zone of inhibition at 25 µg/mL (Escherichia coli [2]): 6 mm | zone of inhibition at 50 µg/mL (Pseudomonas aeruginosa [3]): 10 mm | zone of inhibition at 25 µg/mL (Staphylococcus aureus [4]): 10 mm | zone of inhibition at 75 µg/mL (Escherichia coli [5]): 11 mm | zone of inhibition at 50 µg/mL (Escherichia coli [6]): 9 mm | zone of inhibition at 75 µg/mL (Staphylococcus aureus [7]): 15 mm | MIC [8]: 59.8 µM | zone of inhibition at 50 µg/mL (Staphylococcus aureus [9]): 12 mm

O=C(Cc1c[nH]c2ccccc12)N1CCN(S(=O)(=O)c2ccc(F)cc2)CC1
zone of inhibition at 75 µg/mL (Pseudomonas aeruginosa [1]): 13 mm | zone of inhibition at 50 µg/mL (Pseudomonas aeruginosa [3]): 10 mm | zone of inhibition at 25 µg/mL (Staphylococcus aureus [4]): 13 mm | zone of inhibition at 75 µg/mL (Escherichia coli [5]): 18 mm | zone of inhibition at 50 µg/mL (Escherichia coli [6]): 15 mm | zone of inhibition at 75 µg/mL (Staphylococcus aureus [7]): 20 mm | MIC [8]: > 120 µM | zone of inhibition at 50 µg/mL (Staphylococcus aureus [9]): 15 mm

O=C(CCc1c[nH]c2ccccc12)N1CCN(C(=O)c2ccc(F)cc2)CC1
zone of inhibition at 75 µg/mL (Pseudomonas aeruginosa [1]): 13 mm | zone of inhibition at 50 µg/mL (Pseudomonas aeruginosa [3]): 10 mm | zone of inhibition at 25 µg/mL (Staphylococcus aureus [4]): 13 mm | zone of inhibition at 75 µg/mL (Escherichia coli [5]): 18 mm | zone of inhibition at 50 µg/mL (Escherichia coli [6]): 15 mm | zone of inhibition at 75 µg/mL (Staphylococcus aureus [7]): 20 mm | MIC [8]: 65.9 µM | zone of inhibition at 50 µg/mL (Staphylococcus aureus [9]): 15 mm

Cc1ccc(C(=O)N2CCN(C(=O)Cc3c[nH]c4ccccc34)CC2)cc1
zone of inhibition at 75 µg/mL (Pseudomonas aeruginosa [1]): 10 mm | zone of inhibition at 25 µg/mL (Staphylococcus aureus [4]): 12 mm | zone of inhibition at 75 µg/mL (Escherichia coli [5]): 18 mm | zone of inhibition at 50 µg/mL (Escherichia coli [6]): 12 mm | zone of inhibition at 75 µg/mL (Staphylococcus aureus [7]): 15 mm | MIC [8]: > 120 µM | zone of inhibition at 50 µg/mL (Staphylococcus aureus [9]): 13 mm

O=C(CCc1cn(Cc2ccc(F)cc2)c2ccccc12)N1CCN(S(=O)(=O)c2ccc(F)cc2)CC1
zone of inhibition at 75 µg/mL (Pseudomonas aeruginosa [1]): 12 mm | zone of inhibition at 50 µg/mL (Pseudomonas aeruginosa [3]): 10 mm | zone of inhibition at 25 µg/mL (Staphylococcus aureus [4]): 15 mm | zone of inhibition at 75 µg/mL (Escherichia coli [5]): 18 mm | zone of inhibition at 50 µg/mL (Escherichia coli [6]): 14 mm | zone of inhibition at 75 µg/mL (Staphylococcus aureus [7]): 23 mm | MIC [8]: 23.8 µM | zone of inhibition at 50 µg/mL (Staphylococcus aureus [9]): 18 mm

O=C(Cc1c[nH]c2ccccc12)N1CCN(C(=O)c2ccccc2)CC1
zone of inhibition at 75 µg/mL (Pseudomonas aeruginosa [1]): 13 mm | zone of inhibition at 25 µg/mL (Escherichia coli [2]): 6 mm | zone of inhibition at 50 µg/mL (Pseudomonas aeruginosa [3]): 9 mm | zone of inhibition at 25 µg/mL (Staphylococcus aureus [4]): 10 mm | zone of inhibition at 75 µg/mL (Escherichia coli [5]): 12 mm | zone of inhibition at 50 µg/mL (Escherichia coli [6]): 9 mm | zone of inhibition at 75 µg/mL (Staphylococcus aureus [7]): 15 mm | MIC [8]: > 120 µM | zone of inhibition at 50 µg/mL (Staphylococcus aureus [9]): 12 mm

O=C(CCc1c[nH]c2ccccc12)N1CCN(C(=O)c2ccccc2)CC1
zone of inhibition at 75 µg/mL (Pseudomonas aeruginosa [1]): 12 mm | zone of inhibition at 50 µg/mL (Pseudomonas aeruginosa [3]): 10 mm | zone of inhibition at 75 µg/mL (Escherichia coli [5]): 15 mm | zone of inhibition at 50 µg/mL (Escherichia coli [6]): 13 mm | zone of inhibition at 75 µg/mL (Staphylococcus aureus [7]): 15 mm | MIC [8]: > 120 µM | zone of inhibition at 50 µg/mL (Staphylococcus aureus [9]): 13 mm

O=C(Cc1c[nH]c2ccccc12)N1CCN(C(=O)c2ccc(F)cc2)CC1
zone of inhibition at 75 µg/mL (Pseudomonas aeruginosa [1]): 10 mm | zone of inhibition at 75 µg/mL (Escherichia coli [5]): 18 mm | zone of inhibition at 50 µg/mL (Escherichia coli [6]): 15 mm | zone of inhibition at 75 µg/mL (Staphylococcus aureus [7]): 20 mm | MIC [8]: 68.4 µM | zone of inhibition at 50 µg/mL (Staphylococcus aureus [9]): 13 mm

Cc1ccc(S(=O)(=O)N2CCN(C(=O)CCc3cn(Cc4ccc(F)cc4)c4ccccc34)CC2)cc1
zone of inhibition at 75 µg/mL (Pseudomonas aeruginosa [1]): 10 mm | zone of inhibition at 25 µg/mL (Staphylococcus aureus [4]): 15 mm | zone of inhibition at 75 µg/mL (Escherichia coli [5]): 18 mm | zone of inhibition at 50 µg/mL (Escherichia coli [6]): 15 mm | zone of inhibition at 75 µg/mL (Staphylococcus aureus [7]): 23 mm | MIC [8]: 48.1 µM | zone of inhibition at 50 µg/mL (Staphylococcus aureus [9]): 18 mm

O=C(CCc1cn(Cc2ccc(F)cc2)c2ccccc12)N1CCN(C(=O)c2ccccc2)CC1
zone of inhibition at 75 µg/mL (Pseudomonas aeruginosa [1]): 13 mm | zone of inhibition at 50 µg/mL (Pseudomonas aeruginosa [3]): 10 mm | zone of inhibition at 25 µg/mL (Staphylococcus aureus [4]): 15 mm | zone of inhibition at 75 µg/mL (Escherichia coli [5]): 15 mm | zone of inhibition at 50 µg/mL (Escherichia coli [6]): 13 mm | zone of inhibition at 75 µg/mL (Staphylococcus aureus [7]): 23 mm | MIC [8]: 53.2 µM | zone of inhibition at 50 µg/mL (Staphylococcus aureus [9]): 18 mm

O=C(CCc1c[nH]c2ccccc12)N1CCN(S(=O)(=O)c2ccc(Cl)cc2)CC1
zone of inhibition at 75 µg/mL (Pseudomonas aeruginosa [1]): 10 mm | zone of inhibition at 75 µg/mL (Escherichia coli [5]): 10 mm | zone of inhibition at 50 µg/mL (Escherichia coli [6]): 8 mm | zone of inhibition at 75 µg/mL (Staphylococcus aureus [7]): 13 mm | MIC [8]: 57.8 µM | zone of inhibition at 50 µg/mL (Staphylococcus aureus [9]): 10 mm

O=C(Cc1cn(Cc2ccc(F)cc2)c2ccccc12)N1CCN(S(=O)(=O)c2ccc(Cl)cc2)CC1
zone of inhibition at 75 µg/mL (Pseudomonas aeruginosa [1]): 13 mm | zone of inhibition at 25 µg/mL (Staphylococcus aureus [4]): 15 mm | zone of inhibition at 75 µg/mL (Escherichia coli [5]): 18 mm | zone of inhibition at 50 µg/mL (Escherichia coli [6]): 15 mm | zone of inhibition at 75 µg/mL (Staphylococcus aureus [7]): 22 mm | MIC [8]: 23.8 µM | zone of inhibition at 50 µg/mL (Staphylococcus aureus [9]): 18 mm

Cc1ccc(S(=O)(=O)N2CCN(C(=O)Cc3cn(Cc4ccc(F)cc4)c4ccccc34)CC2)cc1
zone of inhibition at 75 µg/mL (Pseudomonas aeruginosa [1]): 13 mm | zone of inhibition at 25 µg/mL (Staphylococcus aureus [4]): 13 mm | zone of inhibition at 75 µg/mL (Escherichia coli [5]): 18 mm | zone of inhibition at 50 µg/mL (Escherichia coli [6]): 15 mm | zone of inhibition at 75 µg/mL (Staphylococcus aureus [7]): 22 mm | MIC [8]: 49.4 µM | zone of inhibition at 50 µg/mL (Staphylococcus aureus [9]): 18 mm
